Results published in patent publication US20130196320A1, “METHOD FOR IMPROVING CLEAVAGE OF DNA BY ENDONUCLEASE SENSITIVE TO METHYLATION” (CELLECTIS, priority 2010, published 2013).

Experiments:
[1] = test system: CAPNS1 target in human CAPNS1 gene, 293H cells; experiment: Meganuclease-induced mutagenesis assay at CAPNS1 recognition site; type: cell-based; conditions: Empty vector, 1 μM 5-aza-2′-deoxycytidine, CAPNS1 locus
Method: The human 293H cells (ATCC) were plated at a density of 1.2×10^6 cells per 10 cm dish in complete medium (DMEM supplemented with 2 mM L-glutamine, penicillin (100 IU/ml), streptomycin (100 μg/ml), amphotericin B (Fongizone: 0.25 μg/ml, Invitrogen-Life Science) and 10% FBS). The cells were pre-treated with 5-aza-deoxycytidine at 0.2 μM or 1 μM, 48 hours before transfection and the treatment was maintained 48 hours post-transfection. The medium was changed every day. The cells were transfected with 3 μg of DNA plasmids encoding meganuclease for RAG or 2.5 μg of each monomer CAPNS1 using Lipofectamine 2000 transfection reagent (Invitrogen) according to the manufacturer's protocol.
The efficiency of the meganuclease to promote mutagenesis at its endogenous recognition site was evaluated by sequencing the DNA surrounding the meganuclease cleavage site. Two days post-transfection, genomic DNA was extracted. 200 ng of genomic DNA were used to amplify (PCR amplification) the endogenous locus surrounding the meganuclease cleavage site. PCR amplification is performed to obtain a fragment flanked by specific adaptor sequences [adaptor A: 5′-[…]-NNNN-3′(SEQ ID NO: 46) and adaptor B, 5′-[…]-3′ (SEQ ID NO: 47)] provided by the company offering sequencing service (GATC Biotech AG, Germany) on the 454 sequencing system (454 Life Sciences). The primers sequences used for PCR amplification were:
RAG_R1: 5′-[…]-[…]-3′ (SEQ ID NO: 58) and CAPNS1_J3: 5′-[…]-NNNN-[…] (SEQ ID NO: 59) and CAPNS1_R3: 5′-[…]-[…]-3′ (SEQ ID NO: 60). Sequences specific to the locus are underlined. The sequence NNNN in primer F1 is a Barcode sequence (Tag) needed to link the sequence with a PCR product. The percentage of PCR fragments carrying insertion or deletion at the meganuclease cleavage site is related to the mutagenesis induced by the meganuclease through NHEJ pathway in a cell population, and therefore correlates with the meganuclease activity at its endogenous recognition site. 5000 to 10000 sequences were analyzed per conditions.

XPC4.1 DNA target = experiment: In vitro binding assay, fluorescence anisotropy of fluorescein-labeled XPC4.1 duplex
Method: FIG. 7: Spectrofluorimetric titration of fluorescein-labeled XPC4.1 by XPC4. 50 nM of XPC4.1 duplex was incubated with increasing concentrations of XPC4 (from […]) in binding buffer (10 mM Tris-HCl, 150 mM NaCl, 10 mM CaCl2, 10 mM DTT, pH8) at 25° C. After 30 minutes incubation, the fluorescence anisotropy of the mixture was recorded with a Pherastar Plus (BMG Labtech) operating in fluorescence polarization end point mode with excitation and emission wavelengths set to 495 and 520 nm respectively. Normalized fluorescence anisotropy is plotted as a function of XPC4 concentration. Apparent dissociation constant were determined by fitting raw data by an hyperbolic function (Ax=(A∞*[Meganuclease])/(Kd+[Meganuclease]) with Ax, the fluorescence anisotropy value obtained at a given meganuclease concentration, A∞ the fluorescence anisotropy value obtained at saturating concentration of meganuclease and Kd the dissociation constant of the equilibrium studied).
Fluorescein labeled C1234 oligonucleotides were synthesized and HPLC-purified by Eurogentec. […] C 1234 duplex and fluorescein final concentrations were assessed by spectrophotometry using their respective extinction coefficients ε260nm=62900 M^−1 cm^−1 and ε495nm=83000 M^−1 cm^−1. […]

Nc1ncn([C@H]2C[C@H](O)[C@@H](CO)O2)c(=O)n1 [5-aza-2′deoxycytidine, reference compound]
mutagenesis, PCR fragments carrying a mutation [1]: 0.22%±0.25 | mutagenesis, PCR fragments carrying a mutation ([1]; listed as 5-aza-2′-deoxycytidine): 0.22% ± 0.25

B1: XPC4: engineered meganuclease (SEQ ID NO: 2) designed to cleave xeroderma pigmentosum group C gene (XPC) (protein)
chain: MANTKYNEEFLLYLAGFVDGDGSIIAQIKPNQSHKFKHALQLTFKVTQKTQRRWFLDKLVDEIGVGYVQDSGSVSNYILSEIKPLHNFLTQLQPFLELKQKQANLALKIIEQLPSAKESPDKFLEVCTWVDQVAALNDSKTRKTTSETVRAVLDSLSEKKKSSPAAGGSDKYNQALSKYNQALSKYNQALSGGGGSNKKFLLYLAGFVDSDGSIIAQIKPNQSHKFKHQLSLAFQVTQKTQRRWFLDKLVDRIGVGYVRDRGSVSDYILSKIKPLHNFLTQLQPFLKLKQKQANLVLKIIEQLPSAKESPDKFLEVCTWVDQVAALNDSKTRKTTSETVRAVLDSLSEKKKSSP
Kd (XPC4.1 DNA target; XPC4.1_Me −11a/−10b & +10a/+11b (fully methylated)): 127 ± 22 nM | Kd (XPC4.1 DNA target; unmethylated XPC4.1): 108 ± 21 nM
